Where “and” joins values, the source holds several entries; their conditions need not be identical. Equal entries are not always repeated. Marks after values point to notes of the source that are not given here.
Tests used:
Format in all cases: cell-based
[1] = system: p62; test: p62 degradation assay (p62/actin immunoblot); parameters: key: −: activity not reported; 0: decreased vs. WT; +: similar to WT; ++: modest increase vs. WT; +++: significant increase vs. WT; settings: for Activity (μM) 10, p62/actin assay activity: 10 μM; for Activity (μM) 20, p62/actin assay activity: 20 μM; for Activity (μM) 30, p62/actin assay activity: 30 μM; for Activity (μM) 50, p62/actin assay activity: 50 μM; for Activity (μM) 100, p62/actin assay activity: 100 μM; for Activity (μM) 10, starred cell, p62/actin assay activity / Activity (μM) 30, starred cell, p62/actin assay activity: Table 8; for Activity (μM) 10, starred cell, p62/actin assay activity: 10 μM marked * (footnote: data taken at 20 instead of 30 μM); for Activity (μM) 30, starred cell, p62/actin assay activity: *Data taken at 20 instead of 30 μM
[2] = system: HeLa cells; test: Autophagy induction judged by p62 and LC3 immunoblots together; parameters: key to Activity compared to wild-type WT / Activity (μM) 10, single symbol / Activity (μM) 30, single symbol / Activity (μM) 50, single symbol / Activity (μM) 100, single symbol: −: activity not reported; 0: decreased vs. WT; +: similar to WT; ++: modest increase vs. WT; +++: significant increase vs. WT; settings: for Activity (μM) 10, single symbol: 10 μM; for Activity (μM) 30, single symbol: 30 μM; for Activity (μM) 50, single symbol: 50 μM; for Activity (μM) 100, single symbol: 100 μM
Description: This 10-mer sequence was substituted with various thiol-containing amino acids at various positions, and then cross-linked with various linkers as described above (FIG. 5, a and FIG. 6).
Cells were treated with peptide in OPTI-MEM (Thermo Scientific) acidified with 0.15% (v/v) 6N HCl for 3 hour. Cells were rinsed with Dulbecco's phosphate buffered saline (PBS) and lysed in lysis buffer (20 mM HEPES, 150 mM NaCl, 1 mM EDTA, 1% Triton X-100, protease inhibitor cocktail (Roche) on ice for 1 hour. Cell lysates were centrifuged at 16,000 g for 10 min at 4° C. and analyzed by SDS-PAGE and transferred to PVDF membranes. The membranes were blocked 5% non-fat dry milk (NFDM) in PBST (PBS+0.05% Tween-20) for 1 hour, then incubated overnight at 4° C. with primary antibody in 5% NFDM in PBST. The blots were washed with PBST and incubated with HRP-conjugated secondary antibodies diluted in 5% NFDM in PBST for 1 hour at room temperature. Membranes were washed with PBST and visualized with SuperSignal West Pico Chemiluminescent Substrate (Thermo Scientific). Semi-quantitative results were obtained by noting the lowest concentration at which both p62 degradation and LC3-I to LC3-II conversion were observed.
(SEQ ID NO: 16)-Sequence. […] The N-terminus was capped with an acetyl group while the C terminus was capped with a —C(O)—NH2 group. The activity reported is a summation of results from both the p62 degradation assay and the LC3 marker assay.

[3] = system: LC3; test: LC3 marker assay (LC3-I to LC3-II conversion immunoblot); parameters: key: −: activity not reported; 0: decreased vs. WT; +: similar to WT; ++: modest increase vs. WT; +++: significant increase vs. WT; settings: for Activity (μM) 10, LC3 assay activity: 10 μM; for Activity (μM) 20, LC3 assay activity: 20 μM; for Activity (μM) 30, LC3 assay activity: 30 μM; for Activity (μM) 50, LC3 assay activity: 50 μM; for Activity (μM) 100, LC3 assay activity: 100 μM; for Activity (μM) 10, starred cell, LC3 assay activity / Activity (μM) 30, starred cell, LC3 assay activity: Table 8; for Activity (μM) 10, starred cell, LC3 assay activity: 10 μM marked * (footnote: data taken at 20 instead of 30 μM); for Activity (μM) 30, starred cell, LC3 assay activity: *Data taken at 20 instead of 30 μM
[4] = Table 3, control vehicle, first symbol of cell
[5] = Table 4, control inactive Tat-Beclin mutant, first symbol
[6] = Table 3, control vehicle, first symbol
[7] = Table 8, control compound T25, first symbol
[8] = Table 4, starred rows (asterisk not explained)
[9] = Table 3, control vehicle, second symbol of cell
[10] = Table 4, control inactive Tat-Beclin mutant, second symbol
[11] = Table 3, control vehicle, second symbol
[12] = Table 8, control compound T25, second symbol
[13] = Table 5, control compound T25, first symbol
[14] = Table 6, control DMSO, first symbol
[15] = Table 5, control compound T25, second symbol
[16] = Table 6, control DMSO, second symbol

VCNACFHIWH [Compound 3]
+: Activity (μM) 20, p62/actin assay activity [1, 6] | Activity (μM) 50, LC3 assay activity [3, 10]
+++/+++: Activity (μM) 100, p62/actin assay activity [1, 6] | Activity (μM) 100, p62/actin assay activity [1, 7] | Activity (μM) 100, LC3 assay activity [3, 11] | Activity (μM) 100, LC3 assay activity [3, 12]
0/0*: Activity (μM) 10, starred cell, p62/actin assay activity ([1]; first symbol) | Activity (μM) 10, starred cell, LC3 assay activity ([3]; second symbol)
0/0: Activity (μM) 10, p62/actin assay activity [1, 4] | Activity (μM) 30, p62/actin assay activity [1, 7] | Activity (μM) 100, p62/actin assay activity [1, 5] | Activity (μM) 10, LC3 assay activity [3, 9] | Activity (μM) 30, LC3 assay activity [3, 12] | Activity (μM) 100, LC3 assay activity [3, 10]
0: Activity (μM) 10, p62/actin assay activity [1, 5] | Activity (μM) 30, p62/actin assay activity [1, 5] | Activity (μM) 50, p62/actin assay activity [1, 5] | Activity (μM) 10, single symbol [2, 8] | Activity (μM) 30, single symbol [2, 8] | Activity (μM) 50, single symbol [2, 8] | Activity (μM) 100, single symbol [2, 8]
++: Activity (μM) 50, p62/actin assay activity [1, 6] | Activity (μM) 10, LC3 assay activity [3, 10]
+ and +++/+++: Activity (μM) 50, p62/actin assay activity [1, 7]
0 and +++/+++: Activity (μM) 50, LC3 assay activity [3, 12]
+++: Activity (μM) 20, LC3 assay activity [3, 11] | Activity (μM) 30, LC3 assay activity [3, 10] | Activity (μM) 50, LC3 assay activity [3, 11]

VFNATFEIWH [Compound T25]
+++: Activity (μM) 30, single symbol ([2]; Table 7, one symbol only) | Activity (μM) 5, LC3 assay activity ([3]; 5 μM, Table 8, control compound T25, second symbol) | Activity (μM) 10, LC3 assay activity [3, 12]
++: Activity (μM) 5, p62/actin assay activity ([1]; 5 μM, Table 8, control compound T25, first symbol) | Activity (μM) 10, p62/actin assay activity [1, 7] | Activity compared to wild-type WT ([2]; Tat-linked linear peptides, summation of p62 degradation assay and LC3 marker assay)
+++/+++*: Activity (μM) 30, starred cell, p62/actin assay activity ([1]; first symbol) | Activity (μM) 30, starred cell, LC3 assay activity ([3]; second symbol)

VCNATCHIWH [Compound 16]
0: Activity (μM) 10, p62/actin assay activity [1, 13] | Activity (μM) 30, p62/actin assay activity [1, 13] | Activity (μM) 50, p62/actin assay activity [1, 13] | Activity (μM) 100, p62/actin assay activity [1, 13] | Activity (μM) 10, single symbol ([2]; Table 5)
++: Activity (μM) 10, p62/actin assay activity [1, 14] | Activity (μM) 50, single symbol ([2]; Table 5) | Activity (μM) 100, single symbol ([2]; Table 5) | Activity (μM) 10, LC3 assay activity [3, 15] | Activity (μM) 30, LC3 assay activity [3, 15] | Activity (μM) 50, LC3 assay activity [3, 15] | Activity (μM) 100, LC3 assay activity [3, 15]
+++: Activity (μM) 30, p62/actin assay activity [1, 14] | Activity (μM) 50, p62/actin assay activity [1, 14] | Activity (μM) 100, p62/actin assay activity [1, 14]
+: Activity (μM) 30, single symbol ([2]; Table 5) | Activity (μM) 10, LC3 assay activity [3, 16] | Activity (μM) 30, LC3 assay activity [3, 16] | Activity (μM) 50, LC3 assay activity [3, 16] | Activity (μM) 100, LC3 assay activity [3, 16]

YGRKKRRQRRR (Human immunodeficiency virus) [Tat, HIV-1 Tat protein transduction domain, reference compound]
+: Activity (μM) 50, LC3 assay activity [3, 10]
0/0: Activity (μM) 10, p62/actin assay activity [1, 5] | Activity (μM) 30, p62/actin assay activity [1, 5] | Activity (μM) 100, p62/actin assay activity [1, 5] | Activity (μM) 10, LC3 assay activity [3, 10] | Activity (μM) 30, LC3 assay activity [3, 10] | Activity (μM) 100, LC3 assay activity [3, 10]
0: Activity (μM) 50, p62/actin assay activity [1, 5] | Activity (μM) 10, single symbol [2, 8] | Activity (μM) 30, single symbol [2, 8] | Activity (μM) 50, single symbol [2, 8] | Activity (μM) 100, single symbol [2, 8]

VCNATCHIWH [Compound 17]
+++: Activity (μM) 10, p62/actin assay activity [1, 13] | Activity (μM) 30, p62/actin assay activity [1, 14] | Activity (μM) 50, p62/actin assay activity [1, 14] | Activity (μM) 100, p62/actin assay activity [1, 14] | Activity (μM) 50, single symbol ([2]; Table 5) | Activity (μM) 100, single symbol ([2]; Table 5) | Activity (μM) 10, LC3 assay activity [3, 12]
+++/+++*: Activity (μM) 30, starred cell, p62/actin assay activity ([1]; first symbol) | Activity (μM) 30, starred cell, LC3 assay activity ([3]; second symbol)
++: Activity (μM) 10, p62/actin assay activity [1, 7] | Activity (μM) 30, p62/actin assay activity [1, 13] | Activity (μM) 50, p62/actin assay activity [1, 13] | Activity (μM) 100, p62/actin assay activity [1, 13] | Activity (μM) 30, single symbol ([2]; Table 5) | Activity (μM) 10, LC3 assay activity [3, 16] | Activity (μM) 30, LC3 assay activity [3, 16] | Activity (μM) 50, LC3 assay activity [3, 16]
+: Activity (μM) 10, p62/actin assay activity [1, 14] | Activity (μM) 50, LC3 assay activity [3, 15] | Activity (μM) 100, LC3 assay activity [3, 16]
0: Activity (μM) 10, single symbol ([2]; Table 5) | Activity (μM) 10, LC3 assay activity [3, 15] | Activity (μM) 30, LC3 assay activity [3, 15] | Activity (μM) 100, LC3 assay activity [3, 15]

VCNATCHIWH [Compound 1]
0/0* and +: Activity (μM) 10, starred cell, LC3 assay activity ([3]; second symbol)
+: Activity (μM) 30, LC3 assay activity [3, 10] | Activity (μM) 100, LC3 assay activity [3, 11] | Activity (μM) 100, LC3 assay activity [3, 12]
0/0 and +++/+++: Activity (μM) 50, p62/actin assay activity [1, 7] | Activity (μM) 50, LC3 assay activity [3, 12]
0/0: Activity (μM) 10, p62/actin assay activity [1, 4] | Activity (μM) 10, p62/actin assay activity [1, 5] | Activity (μM) 20, p62/actin assay activity [1, 6] | Activity (μM) 50, p62/actin assay activity [1, 6] | Activity (μM) 10, LC3 assay activity [3, 9] | Activity (μM) 10, LC3 assay activity [3, 10] | Activity (μM) 20, LC3 assay activity [3, 11] | Activity (μM) 50, LC3 assay activity [3, 11]
0/0 and +++: Activity (μM) 30, LC3 assay activity [3, 12]
++: Activity (μM) 50, LC3 assay activity [3, 10]
0/0* and 0: Activity (μM) 10, starred cell, p62/actin assay activity ([1]; first symbol)
+++: Activity (μM) 100, p62/actin assay activity [1, 6] | Activity (μM) 100, p62/actin assay activity [1, 7]
0: Activity (μM) 30, p62/actin assay activity [1, 5] | Activity (μM) 50, p62/actin assay activity [1, 5] | Activity (μM) 100, p62/actin assay activity [1, 5] | Activity (μM) 10, single symbol [2, 8] | Activity (μM) 30, single symbol [2, 8] | Activity (μM) 50, single symbol [2, 8] | Activity (μM) 100, single symbol [2, 8]
0/0 and ++: Activity (μM) 30, p62/actin assay activity [1, 7]

VCNATCHIWH [Compound 15]
0: Activity (μM) 10, single symbol ([2]; Table 5)
+++: Activity (μM) 30, p62/actin assay activity [1, 14] | Activity (μM) 50, p62/actin assay activity [1, 14] | Activity (μM) 100, p62/actin assay activity [1, 14] | Activity (μM) 50, single symbol ([2]; Table 5) | Activity (μM) 100, single symbol ([2]; Table 5)
++/++: Activity (μM) 10, p62/actin assay activity [1, 14] | Activity (μM) 50, p62/actin assay activity [1, 13] | Activity (μM) 10, LC3 assay activity [3, 16] | Activity (μM) 50, LC3 assay activity [3, 15]
+: Activity (μM) 30, single symbol ([2]; Table 5) | Activity (μM) 30, LC3 assay activity [3, 16] | Activity (μM) 50, LC3 assay activity [3, 16] | Activity (μM) 100, LC3 assay activity [3, 16]
+/+: Activity (μM) 30, p62/actin assay activity [1, 13] | Activity (μM) 30, LC3 assay activity [3, 15]
+++/+++: Activity (μM) 100, p62/actin assay activity [1, 13] | Activity (μM) 100, LC3 assay activity [3, 15]
0/0: Activity (μM) 10, p62/actin assay activity [1, 13] | Activity (μM) 10, LC3 assay activity [3, 15]

— patent US10993983B2, “Cyclic peptide epitopes and small-molecule mimics for inducing autophagy” (TRUSTEES OF TUFTS COLLEGE, priority 2016, dated 2021)
